Patent US20250197382A1, “KIF18A INHIBITOR” (WIGEN BIOMEDICINE TECHNOLOGY (SHANGHAI) CO., LTD., priority 2022, published 2025)

Each molecule was assayed against Recombinant human KIF18A (1-467His-tagged) protein (Homo sapiens (Human), UniProt Q8NI77) (assay: KIF18A enzyme assay (microtubule-stimulated ATPase activity, ADP-Glo)). Settings: 30 nM KIF18A, ATP 75 μM, read-out: inhibitory activity against KIF18A IC50.
Format: biochemical
Method: Biological Example 1. Assay for In Vitro Inhibition of Enzymatic Activity of KIF18A by Compounds of the Present Invention
KIF18A enzyme assay: The enzymatic activity of KIF18A after treatment with the compounds was measured by an assay of microtubule-stimulated ATPase activity. ADP generated from the ATPase reaction was measured in this assay. The compounds were serially diluted 2-fold in DMSO over a range of 22 concentration points. Recombinant human KIF18A (1-467His-tagged) protein was expressed using a baculovirus system. Concentrations of KIF18A protein, microtubules, and ATP in the reaction were optimized for a standardized homogenous enzyme assay using an ADP-Glo kinase/ATPase assay kit. A reaction buffer [(15 mM Tris, pH 7.5), 10 mM MgCl2, 0.01% PluronicF-68, 1 μM paclitaxel, and 30 μg/mL pig microtubules] was prepared. The compounds and KIF18A protein (30 nM) were added to the prepared reaction buffer, and the reaction mixture was incubated at room temperature for 15 min, followed by addition of ATP (Km, 75 μM). The resulting reaction mixture was incubated at room temperature for another 15 min. 5 μL of ADP-Glo reagent and 2.5 μL of the reaction mixture were mixed and the resulting mixture was incubated at room temperature for 40 min. 10 μL of ADP-Glo detection reagent was added and the mixture was incubated at room temperature for 40 min. Luminescence was measured using a microplate reader and compared with that of the DMSO group, and then the inhibition percentages and IC50 values of the compounds were calculated.

Recombinant human KIF18A (1-467His-tagged) protein, sequence (Q8NI77 1-467): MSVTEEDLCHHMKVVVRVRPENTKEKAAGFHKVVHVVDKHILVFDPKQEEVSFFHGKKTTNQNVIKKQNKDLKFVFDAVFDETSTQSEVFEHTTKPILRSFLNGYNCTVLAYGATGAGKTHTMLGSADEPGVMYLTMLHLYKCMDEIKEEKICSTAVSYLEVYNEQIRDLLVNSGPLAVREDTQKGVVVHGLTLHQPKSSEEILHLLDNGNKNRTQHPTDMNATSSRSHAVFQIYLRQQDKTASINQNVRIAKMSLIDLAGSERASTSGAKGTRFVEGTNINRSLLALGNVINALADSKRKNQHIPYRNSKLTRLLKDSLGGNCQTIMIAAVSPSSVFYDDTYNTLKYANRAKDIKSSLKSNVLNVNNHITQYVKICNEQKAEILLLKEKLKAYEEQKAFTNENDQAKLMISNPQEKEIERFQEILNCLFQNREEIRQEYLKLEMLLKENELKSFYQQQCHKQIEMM
Recombinant human KIF18A (1-467His-tagged) protein, sequence (P02550 whole entry partner): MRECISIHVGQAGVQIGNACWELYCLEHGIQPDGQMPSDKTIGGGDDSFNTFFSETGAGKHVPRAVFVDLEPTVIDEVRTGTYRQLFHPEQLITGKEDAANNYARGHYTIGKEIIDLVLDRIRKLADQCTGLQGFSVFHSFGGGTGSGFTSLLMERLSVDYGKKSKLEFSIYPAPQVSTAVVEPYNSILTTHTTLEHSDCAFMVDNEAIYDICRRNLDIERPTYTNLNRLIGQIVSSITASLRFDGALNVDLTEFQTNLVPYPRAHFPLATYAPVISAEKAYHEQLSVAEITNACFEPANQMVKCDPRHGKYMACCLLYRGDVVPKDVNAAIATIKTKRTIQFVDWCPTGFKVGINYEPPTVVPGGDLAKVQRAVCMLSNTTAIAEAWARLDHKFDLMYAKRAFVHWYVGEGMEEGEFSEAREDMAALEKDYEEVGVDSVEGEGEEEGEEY
Recombinant human KIF18A (1-467His-tagged) protein, sequence (P02554 whole entry partner): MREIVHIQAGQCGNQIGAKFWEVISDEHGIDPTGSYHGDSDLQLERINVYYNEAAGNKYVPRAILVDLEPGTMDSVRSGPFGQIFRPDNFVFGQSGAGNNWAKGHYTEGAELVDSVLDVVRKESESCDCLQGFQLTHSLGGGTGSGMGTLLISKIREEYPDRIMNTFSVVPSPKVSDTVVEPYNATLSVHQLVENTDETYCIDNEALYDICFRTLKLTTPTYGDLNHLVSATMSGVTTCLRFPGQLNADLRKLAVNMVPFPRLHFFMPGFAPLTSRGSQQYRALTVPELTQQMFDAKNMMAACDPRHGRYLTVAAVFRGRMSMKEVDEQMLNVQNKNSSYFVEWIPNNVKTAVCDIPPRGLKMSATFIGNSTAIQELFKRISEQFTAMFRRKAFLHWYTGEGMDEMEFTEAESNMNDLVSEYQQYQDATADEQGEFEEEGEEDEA

IC50, ≤ 100 nM:
CC1(F)CCN(c2cc(NC(=O)c3ccc(NS(=O)(=O)CCO)cc3N3CCC4(CC3)CC4)cc3c2OCC3)C1 (centres unmarked) [Compound 8]
O=C(Nc1cc2c(c(N3CCC(F)CC3)c1)OCC2)c1ccc(NS(=O)(=O)CCO)cc1N1CCC2(CC1)CC2 [Compound 9]
O=C(Nc1cc2c(c(N3CC4CC4C3)c1)OCC2)c1ccc(NS(=O)(=O)CCO)cc1N1CCC2(CC1)CC2 (centres unmarked) [Compound 10]
CC(C)(CO)Nc1cc(NC(=O)c2ccc(NS(=O)(=O)CCO)cc2N2CCC3(CC2)CC3)cc2c1OCC2 [Compound 11]
O=C(Nc1cc2c(c(N3CCOCC3)c1)OCC2)c1ccc(NS(=O)(=O)CCO)cc1N1CCC2(CC1)CC2 [Compound 12]
C[C@@H](CO)S(=O)(=O)Nc1ccc(C(=O)Nc2cc3c(c(N4CCC(F)(F)CC4)c2)OCC3)c(N2CCC3(CC2)CC3)c1 [Compound 13]
C[C@H](CO)S(=O)(=O)Nc1ccc(C(=O)Nc2cc3c(c(N4CCC(F)(F)CC4)c2)OCC3)c(N2CCC3(CC2)CC3)c1 [Compound 14]
C[C@@H]1CN(c2cc(NC(=O)c3ccc(NS(=O)(=O)[C@@H](C)CO)cc3N3CCC4(CC3)CC4)cc3c2OCC3)CCO1 [Compound 15]
C[C@@H]1CN(c2cc(NC(=O)c3ccc(NS(=O)(=O)[C@H](C)CO)cc3N3CCC4(CC3)CC4)cc3c2OCC3)CCO1 [Compound 16]
O=C(Nc1cc2c(c(N3CCC(F)(F)CC3)c1)OCC2)c1ccc(S(=O)(=O)NCCO)cc1N1CCC2(CC1)CC2 [Compound 17]
C[C@@H]1CN(c2cc(NC(=O)c3ccc(S(=O)(=O)NCCO)cc3N3CCC4(CC3)CC4)cc3c2OCC3)CCO1 [Compound 18]
C[C@H]1CN(c2cc(NC(=O)c3ccc(S(=O)(=O)NCCO)cc3N3CCC4(CC3)CC4)cc3c2OCC3)CCO1 [Compound 19]
O=C(Nc1cc2c(c(N3CC(F)(F)C3)c1)OCC2)c1ccc(S(=O)(=O)NCCO)cc1N1CCC2(CC1)CC2 [Compound 20]
O=C(Nc1cc2c(c(OCCC(F)(F)F)c1)OCC2)c1ccc(S(=O)(=O)NCCO)cc1N1CCC2(CC1)CC2 [Compound 21]
O=C(Nc1cc2c(c(N3CCC4(CC4)C3)c1)OCC2)c1ccc(S(=O)(=O)NCCO)cc1N1CCC2(CC1)CC2 [Compound 22]
O=C(Nc1cc2c(c(OC3CCC3)c1)OCC2)c1ccc(S(=O)(=O)NCCO)cc1N1CCC2(CC1)CC2 [Compound 23]
CC1(F)CCN(c2cc(NC(=O)c3ccc(S(=O)(=O)NCCO)cc3N3CCC4(CC3)CC4)cc3c2OCC3)C1 (centres unmarked) [Compound 24]
O=C(Nc1cc2c(c(N3CCC(F)CC3)c1)OCC2)c1ccc(S(=O)(=O)NCCO)cc1N1CCC2(CC1)CC2 [Compound 25]
O=C(Nc1cc2c(c(N3CC4CC4C3)c1)OCC2)c1ccc(S(=O)(=O)NCCO)cc1N1CCC2(CC1)CC2 (centres unmarked) [Compound 26]
CC(C)(CO)Nc1cc(NC(=O)c2ccc(S(=O)(=O)NCCO)cc2N2CCC3(CC2)CC3)cc2c1OCC2 [Compound 27]
O=C(Nc1cc2c(c(N3CCOCC3)c1)OCC2)c1ccc(S(=O)(=O)NCCO)cc1N1CCC2(CC1)CC2 [Compound 28]
C[C@@H](CO)NS(=O)(=O)c1ccc(C(=O)Nc2cc3c(c(N4CCC(F)(F)CC4)c2)OCC3)c(N2CCC3(CC2)CC3)c1 [Compound 29]
C[C@H](CO)NS(=O)(=O)c1ccc(C(=O)Nc2cc3c(c(N4CCC(F)(F)CC4)c2)OCC3)c(N2CCC3(CC2)CC3)c1 [Compound 30]
C[C@@H]1CN(c2cc(NC(=O)c3ccc(S(=O)(=O)N[C@@H](C)CO)cc3N3CCC4(CC3)CC4)cc3c2OCC3)CCO1 [Compound 31]
C[C@H](CO)NS(=O)(=O)c1ccc(C(=O)Nc2cc3c(c(N4CCO[C@H](C)C4)c2)OCC3)c(N2CCC3(CC2)CC3)c1 [Compound 32]
C[C@@H]1CN(c2cc(C(=O)Nc3ccc(NS(=O)(=O)CCO)cc3N3CCC4(CC3)CC4)cc3c2OCC3)CCO1 [Compound 34]
